Measurements taken from patent publication US10239894B2, “Inhibitors of indoleamine 2,3-dioxygenase” (GLAXOSMITHKLINE INTELLECTUAL PROPERTY DEVELOPMENT LIMITED, priority 2015, dated 2019).

Key:
[1] = In vivo pharmacokinetics, mouse clearance
[2] = In vivo pharmacokinetics, rat clearance; settings: plasma, intravenous, male nonfasted Wistar Han rats, doses 1 mg/kg i.v. and 5 mg/kg p.o.
Protocol: In vivo pharmacokinetic methods, rat: Male nonfasted Wistar Han rats (n=3) received test article at doses of 1 mg/kg i.v. (1 mL/kg) and 5 mg/kg p.o. (5 ml/kg) formulated in a DMSO/solutol/10% hydroxyl-propyl β cyclodextrin (10:10:80) dosing vehicle. For all animals,food and water was provided ad libitum. Blood samples were withdrawn from a surgically-implanted venous cannula at timed intervals for 24 h after dose administration, treated with EDTA, and centrifuged to harvest plasma for LC/MS/MS analysis. Plasma concentration-time data for individual rats were analyzed by noncompartmental analysis using the Phoenix™ WinNonlin® (version 6.2.1, Pharsight Corp., St. Louis, Mo.) software to generate pharmacokinetic parameter estimates.

[3] = molecular target: T1, indoleamine 2, 3-dioxygenase (IDO1) in IFN-γ/LPS stimulated human peripheral blood mononuclear cells (PBMC) (Homo sapiens, UniProt P14902); test: PBMC IDOi assay (kynurenine by mass spectrometry); assay type: cell-based; settings: human PBMC stimulated with IFN-γ and LPS, 2 days, kynurenine by MS; read-out: pXC50 PBMC (converted)
T1 construct: host or cells: human PBMC stimulated with IFN-γ and LPS

Recombinant human IDO1 = molecular target: T2, Recombinant human IDO1 (Homo sapiens, UniProt P14902); test: IDOi enzyme assay (absorbance readout of NFK formation at 320 nm); assay type: biochemical; settings: recombinant human IDO1, 2 mM D-tryptophan, 30 min preincubation; read-out: pXC50 enzyme (converted)
T2 construct: made in house; host or cells: E. coli

[4] = molecular target: T3, indoleamine 2, 3-dioxygenase (IDO1) in IFN-γ/LPS stimulated human monocyte-derived dendritic cells (MDDC) (Homo sapiens, UniProt P14902); test: IDOi MDDC assay (kynurenine by mass spectrometry); assay type: cell-based; settings: human MDDC stimulated with IFN-γ and LPS, 2 days, kynurenine by MS; read-out: pXC50 MDDC (converted)
T3 construct: host or cells: human monocyte-derived dendritic cells stimulated with IFN-γ and LPS

[5] = molecular target: T4, indoleamine 2, 3-dioxygenase (IDO1) in IFN-γ stimulated HeLa cells (Homo sapiens, UniProt P14902); test: HeLa IDOi assay (kynurenine by mass spectrometry); assay type: cell-based; settings: HeLa cells stimulated with IFN-γ, 2 days, kynurenine by MS; read-out: pXC50 HeLa (converted)
T4 construct: host or cells: HeLa cells stimulated with IFN-γ
T4 sequence (P14902 whole entry): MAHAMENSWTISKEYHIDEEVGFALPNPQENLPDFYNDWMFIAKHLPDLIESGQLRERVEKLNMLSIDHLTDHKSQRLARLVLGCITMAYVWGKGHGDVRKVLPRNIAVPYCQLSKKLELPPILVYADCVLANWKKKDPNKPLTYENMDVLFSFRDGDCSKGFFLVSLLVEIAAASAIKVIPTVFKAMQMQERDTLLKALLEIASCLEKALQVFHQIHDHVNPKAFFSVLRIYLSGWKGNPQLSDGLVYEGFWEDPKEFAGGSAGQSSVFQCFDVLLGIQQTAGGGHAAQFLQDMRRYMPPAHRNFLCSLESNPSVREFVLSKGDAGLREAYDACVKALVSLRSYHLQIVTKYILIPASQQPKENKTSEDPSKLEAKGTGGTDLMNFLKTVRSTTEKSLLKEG

T1 sequence (P14902 whole entry): as above
T2 sequence (P14902 whole entry): as above
T3 sequence (P14902 whole entry): as above

Structure (SMILES) | clearance [1] [mL/min/kg] | clearance [2] [mL/min/kg] | IC50 [3] [nM] | IC50 (Recombinant human IDO1) [nM] | IC50 [4] [nM] | IC50 [5] [nM]
NS(=O)(=O)NCCNc1nonc1C(=NO)Nc1ccc(F)c(Br)c1 [Compound 11, reference compound] | 37.2 | 50.6 | – | – | – | –
O=C(NCCNc1nonc1C(=NO)Nc1ccc(F)c(Br)c1)c1cccc2c1B(O)OC2 [Compound 6, N-(2-((4-(N-(3-Bromo-4-fluorophenyl)-N′-hydroxycarbamimidoyl)-1,2,5-oxadiazol-3-yl)amino)ethyl)-1-hydroxy-1,3-dihydrobenzo[c][1,2]oxaborole-7-carboxamide] | 7.1 | 4.8 | 100 | 79.4 | 100 | 158
ON=C(Nc1ccc(F)c(Br)c1)c1nonc1Nc1ccc(B(O)O)cc1 [Compound 10] | – | 220 | 200 | 25.1 | 631 | 158
O=C(NCCNc1nonc1C(=NO)Nc1ccc(F)c(Br)c1)Nc1ccc(B(O)O)cc1 [Compound 9] | – | 238 | 31.6 | 31.6 | 63.1 | 100
O=C(NCCNc1nonc1C(=NO)Nc1ccc(F)c(Br)c1)c1cccc2c1B(O)OCC2 [Compound 1, N-(2-((4-(N-(3-bromo-4-fluorophenyl)-N′-hydroxycarbamimidoyl)-1,2,5-oxadiazol-3-yl)amino)ethyl)-1-hydroxy-3,4-dihydro-1H-benzo[c][1,2]oxaborinine-8-carboxamide] | 0.6 | 0.8 | 126 | 100 | 158 | 100
CN(Cc1cccc2c1COB2O)C(=O)CNc1nonc1C(=NO)Nc1ccc(F)c(Br)c1 [Compound 5, 2-((4-(N-(3-Bromo-4-fluorophenyl)-N′-hydroxycarbamimidoyl)-1,2,5-oxadiazol-3-yl)amino)-N-((1-hydroxy-1,3-dihydrobenzo[c][1,2]oxaborol-4-yl)methyl)-N-methylacetamide 2,2,2-trifluoroacetate] | 3.1 | 2.8 | 158 | 100 | 126 | 200
O=C(NCCNc1nonc1C(=NO)Nc1ccc(F)c(Br)c1)c1cccc2c1B(O)OC=C2 [Compound 2, N-(2-((4-(N-(3-Bromo-4-fluorophenyl)-N′-hydroxycarbamimidoyl)-1,2,5-oxadiazol-3-yl)amino)ethyl)-1-hydroxy-1H-benzo[c][1,2]oxaborinine-8-carboxamide] | – | – | 501 | 200 | – | 631
O=C(NCCNc1nonc1C(=NO)Nc1ccc(F)c(Br)c1)c1ccc2c(c1)B(O)OC=C2 [Compound 3, N-(2-((4-(N-(3-Bromo-4-fluorophenyl)-N′-hydroxycarbamimidoyl)-1,2,5-oxadiazol-3-yl)amino)ethyl)-1-hydroxy-1H-benzo[c][1,2]oxaborinine-7-carboxamide] | – | 0.8 | 316 | 79.4 | 2000 | 1260

Now from value to molecule:

clearance [1] [mL/min/kg] | clearance [2] [mL/min/kg] | IC50 [3] [nM] | IC50 (Recombinant human IDO1) [nM] | IC50 [4] [nM] | IC50 [5] [nM] | Structure (SMILES)
– | 2 | 100 | 50.1 | 1260 | 158 | O=C(NCCNc1nonc1C(=NO)Nc1ccc(F)c(Br)c1)c1ccc2c(c1)B(O)OCC2 [Compound 4, N-(2-((4-(N-(3-Bromo-4-fluorophenyl)-N′-hydroxycarbamimidoyl)-1,2,5-oxadiazol-3-yl)amino)ethyl)-1-hydroxy-3,4-dihydro-1H-benzo[c][1,2]oxaborinine-7-carboxamide]
– | 180 | 398 | 100 | – | 631 | O=C(CN1CCOB2OCc3cccc1c32)NCCNc1nonc1C(=NO)Nc1ccc(F)c(Br)c1 [Compound 7]
– | 74.9 | 50.1 | 79.4 | 79.4 | 158 | O=C(NCCNc1nonc1C(=NO)Nc1ccc(F)c(Br)c1)c1ccc2c(c1)COB2O [Compound 8]
